The results in this text go back to US6673938B1, “Substituted pyridine herbicides” (Syngenta Participations AG, priority 1998, dated 2004).

In test [1] the test system is Monocotyledonous and dicotyledonous test plants. The test can be described thus: Herbicidal action before emergence of the plants (pre-emergence action). Type of test: in vivo. The following applies: evaluated after 3 weeks, nine-step scale; for pre-emergence action, Cyperus / pre-emergence action, Ipomoea / pre-emergence action, Setaria / pre-emergence action, Sinapis / pre-emergence action, Solanum / pre-emergence action, Stellaria: 2000 g/ha; for Pre-emergence action, Abutilon / Pre-emergence action, Amaranthus / Pre-emergence action, Chenop. / Pre-emergence action, Digitaria / Pre-emergence action, Echino. / Pre-emergence action, Panicum: 250 g/ha. The procedure, abridged:
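Sprayed onto soil immediately after sowing as WP suspension or EC emulsion at 2 kg or 250 g a.i./ha (500 l water/ha). Greenhouse growth for 3 weeks, then scored on a nine-step scale (1 = complete damage, 9 = no effect).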

The test system is the same in test [2]. Put plainly: Post-emergence herbicidal action. Type of test: in vivo. The following applies: evaluated after approximately 18 days; for Post-emergence action, Ipomoea / Post-emergence action, Lolium / Post-emergence action, Setaria / Post-emergence action, Sinapis / Post-emergence action, Solanum / Post-emergence action, Stellaria: 2000 g/ha, sprayed in 4- to 6-leaf stage, nine-step scale; for Post-emergence action: Abutilon (score, nine-step scale) / Post-emergence action: Chenop. (score, nine-step scale) / Post-emergence action: Digitaria (score, nine-step scale) / Post-emergence action: Echino. (score, nine-step scale) / Post-emergence action: Ipopur. (score, nine-step scale) / Post-emergence action: Panicum (score, nine-step scale) / Post-emergence action: Xanth. (score, nine-step scale): 250 g/ha, sprayed at 4- to 6-leaf stage. The gist of the method:
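Scoring uses a 1–9 scale (1 complete damage, 9 no effect), read roughly 18 days post-application. Compounds were applied post-emergence at 4–6 leaves, as aqueous suspension (25% wettable powder) or emulsion (25% emulsion concentrate), at 250 g or 2 kg a.i./ha in 500 l water/ha.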

Each structure is given as a SMILES string.

As for `CCc1nc(C(F)(F)F)ccc1C(=O)C1=C(O)CCCC1=O` [Compound A3-B1], in test [1], the “pre-emergence action, Cyperus” value is reported as 2; the “pre-emergence action, Ipomoea” value stood at 2; the “pre-emergence action, Setaria” value amounted to 4; the “pre-emergence action, Sinapis” value was determined as 2. For the same compound, in test [1], the “pre-emergence action, Solanum” value is recorded as 3 and the “pre-emergence action, Stellaria” value is 2. In addition, in test [2], the “Post-emergence action, Ipomoea” value came out at 1; the “Post-emergence action, Lolium” value was 3; the “Post-emergence action, Setaria” value stood at 2; the “Post-emergence action, Sinapis” value was 1. Further, in test [2], the “Post-emergence action, Solanum” value turned out to be 1 and the “Post-emergence action, Stellaria” value worked out at 2.
Regarding `CCc1nc(C(F)(F)F)ccc1C(=O)C1=C(O)C(C)(C)CCC1=O` [Compound A3-B24], in test [1], the “pre-emergence action, Cyperus” value was determined as 1; the “pre-emergence action, Ipomoea” value stood at 3; the “pre-emergence action, Setaria” value is reported as 2; the “pre-emergence action, Sinapis” value stood at 2. In test [1], the “pre-emergence action, Solanum” value is recorded as 1 and the “pre-emergence action, Stellaria” value turned out to be 2. In test [2], the “Post-emergence action, Ipomoea” value is listed as 2; the “Post-emergence action, Lolium” value was found to be 2; the “Post-emergence action, Setaria” value was 2; the “Post-emergence action, Sinapis” value came to 1. Besides, in test [2], the “Post-emergence action, Solanum” value turned out to be 2 and the “Post-emergence action, Stellaria” value is listed as 2.
Take `COCc1nc(C(F)(F)F)ccc1C(=O)C1=C(O)CCCC1=O` [Compound A8-B1]: in test [1], the “Pre-emergence action, Abutilon” value is 1; the “Pre-emergence action, Amaranthus” value is given as 1; the “Pre-emergence action, Chenop.” value is listed as 1; the “Pre-emergence action, Digitaria” value is listed as 2. In test [1], the “Pre-emergence action, Echino.” value worked out at 2 and the “Pre-emergence action, Panicum” value worked out at 2. In addition, in test [2], the “Post-emergence action: Abutilon (score, nine-step scale)” value (“Post-emergence action: Abutilon” for short) is listed as 3; the “Post-emergence action: Chenop. (score, nine-step scale)” value is on record as 2; the “Post-emergence action: Digitaria (score, nine-step scale)” value (from here on “Post-emergence action: Digitaria”) amounted to 3; the “Post-emergence action: Echino. (score, nine-step scale)” value is reported as 3. Moreover, in test [2], the “Post-emergence action: Ipopur. (score, nine-step scale)” value was found to be 3; the “Post-emergence action: Panicum (score, nine-step scale)” value (shortened to “Post-emergence action: Panicum”) stood at 4; the “Post-emergence action: Xanth. (score, nine-step scale)” value is recorded as 3.
In the case of `COCc1nc(C(F)(F)F)ccc1C(=O)C1=C(O)C(C)CCC1=O` (stereo not drawn) [Compound A8-B2], in test [1], the “pre-emergence action, Cyperus” value came out at 1; the “pre-emergence action, Ipomoea” value is on record as 3; the “pre-emergence action, Setaria” value came to 2; the “pre-emergence action, Sinapis” value amounted to 2. In addition, in test [1], the “pre-emergence action, Solanum” value is recorded as 1 and the “pre-emergence action, Stellaria” value was found to be 2. Moreover, in test [2], the “Post-emergence action, Ipomoea” value worked out at 2; the “Post-emergence action, Lolium” value was 2; the “Post-emergence action, Setaria” value amounted to 2; the “Post-emergence action, Sinapis” value was found to be 2. In test [2], the “Post-emergence action, Solanum” value came out at 2 and the “Post-emergence action, Stellaria” value is 3.
Turning to `COCc1nc(C(F)(F)F)ccc1C(=O)C1=C(O)C(C)(C)CCC1=O` [Compound A8-B24], in test [1], the “pre-emergence action, Cyperus” value is recorded as 1; the “pre-emergence action, Ipomoea” value amounted to 2; the “pre-emergence action, Setaria” value came to 2; the “pre-emergence action, Sinapis” value was found to be 2. In test [1], the “pre-emergence action, Solanum” value was found to be 1 and the “pre-emergence action, Stellaria” value was determined as 3. In addition, in test [2], the “Post-emergence action, Ipomoea” value stood at 2; the “Post-emergence action, Lolium” value is 2; the “Post-emergence action, Setaria” value was 2; the “Post-emergence action, Sinapis” value is listed as 1. In addition, in test [2], the “Post-emergence action, Solanum” value was found to be 2 and the “Post-emergence action, Stellaria” value came to 2.
In the case of `COCc1nc(C(F)(F)F)ccc1C(=O)C1=C(O)C(C)(C(=O)OC)CCC1=O` (stereo not drawn) [Compound A8-B34], in test [1], the “pre-emergence action, Cyperus” value amounted to 2; the “pre-emergence action, Ipomoea” value stood at 3; the “pre-emergence action, Setaria” value was 2; the “pre-emergence action, Sinapis” value was determined as 2. In test [1], the “pre-emergence action, Solanum” value was found to be 2 and the “pre-emergence action, Stellaria” value worked out at 2. In test [2], the “Post-emergence action, Ipomoea” value is listed as 2; the “Post-emergence action, Lolium” value is on record as 2; the “Post-emergence action, Setaria” value was found to be 2; the “Post-emergence action, Sinapis” value stood at 2. In addition, in test [2], the “Post-emergence action, Solanum” value is listed as 2 and the “Post-emergence action, Stellaria” value was found to be 2.
With `COCc1nc(C(F)(F)F)ccc1C(=O)C1=C(O)C(C)(C)C(C)CC1=O` (stereo not drawn) [Compound A8-B156], in test [1], the “Pre-emergence action, Abutilon” value was found to be 3; the “Pre-emergence action, Amaranthus” value was 4; the “Pre-emergence action, Chenop.” value amounted to 2; the “Pre-emergence action, Digitaria” value is 3. In test [1], the “Pre-emergence action, Echino.” value worked out at 3 and the “Pre-emergence action, Panicum” value is listed as 3. Besides, in test [2], the “Post-emergence action: Abutilon” value is recorded as 1; the “Post-emergence action: Chenop. (score, nine-step scale)” value is reported as 1; the “Post-emergence action: Digitaria” value came to 3; the “Post-emergence action: Echino. (score, nine-step scale)” value is listed as 3. Also, in test [2], the “Post-emergence action: Ipopur. (score, nine-step scale)” value turned out to be 2; the “Post-emergence action: Panicum” value is recorded as 2; the “Post-emergence action: Xanth. (score, nine-step scale)” value was determined as 2.
With `COCc1nc(C(F)(F)F)ccc1C(=O)C1=C(O)C(C)(C)OCC1=O` [Compound A8-B552], in test [1], the “Pre-emergence action, Abutilon” value is reported as 1; the “Pre-emergence action, Amaranthus” value is recorded as 4; the “Pre-emergence action, Chenop.” value is on record as 1; the “Pre-emergence action, Digitaria” value turned out to be 3. For the same compound, in test [1], the “Pre-emergence action, Echino.” value is 4 and the “Pre-emergence action, Panicum” value is recorded as 2. For the same compound, in test [2], the “Post-emergence action: Abutilon” value is on record as 2; the “Post-emergence action: Chenop. (score, nine-step scale)” value was found to be 2; the “Post-emergence action: Digitaria” value amounted to 3; the “Post-emergence action: Echino. (score, nine-step scale)” value came to 3. In test [2], the “Post-emergence action: Ipopur. (score, nine-step scale)” value was found to be 2; the “Post-emergence action: Panicum” value is listed as 2; the “Post-emergence action: Xanth. (score, nine-step scale)” value came to 2.
As to `COCc1nc(C(F)(F)F)ccc1C(=O)C1=C(O)CC(C(F)(F)F)CC1=O` (stereo not drawn) [Compound A8-B1064], in test [1], the “pre-emergence action, Cyperus” value is 2; the “pre-emergence action, Ipomoea” value stood at 4; the “pre-emergence action, Setaria” value worked out at 3; the “pre-emergence action, Sinapis” value is given as 2. In addition, in test [1], the “pre-emergence action, Solanum” value stood at 1 and the “pre-emergence action, Stellaria” value came out at 3. In test [2], the “Post-emergence action, Ipomoea” value is 2; the “Post-emergence action, Lolium” value amounted to 4; the “Post-emergence action, Setaria” value is 2; the “Post-emergence action, Sinapis” value was 1. Moreover, in test [2], the “Post-emergence action, Solanum” value was 1 and the “Post-emergence action, Stellaria” value is recorded as 2.
Regarding `CCN(CC)CC.COCc1nc(C(F)(F)F)ccc1C(=O)C1=C(O)CC(C)CC1=O` (stereo not drawn) [Compound A8-B1101], in test [1], the “pre-emergence action, Cyperus” value worked out at 2; the “pre-emergence action, Ipomoea” value is listed as 4; the “pre-emergence action, Setaria” value turned out to be 2; the “pre-emergence action, Sinapis” value was determined as 2. For the same compound, in test [1], the “pre-emergence action, Solanum” value came out at 1 and the “pre-emergence action, Stellaria” value was found to be 1. Besides, in test [2], the “Post-emergence action, Ipomoea” value is given as 2; the “Post-emergence action, Lolium” value is listed as 3; the “Post-emergence action, Setaria” value turned out to be 2; the “Post-emergence action, Sinapis” value is recorded as 1. Moreover, in test [2], the “Post-emergence action, Solanum” value came out at 2 and the “Post-emergence action, Stellaria” value is 2.
